Like-named read-outs stand apart in the source and are kept apart here. Positions of bridges follow the written chain, without caps; N, C: chain ends. Non-standard residues stand in square brackets, D forms with d. Residues, ends and D or L forms follow the SMILES beside them. Hyp = O=C(O)[C@@H]1C[C@@H](O)CN1; Orn = NCCC[C@H](N)C(=O)O; Thz = O=C(O)[C@@H]1CSCN1
Experiments:
[1] = In vivo acute food intake model (BioDAQ) in C57BL/6J male mice; settings: single subcutaneous dose 1 mg/kg, cumulative food intake
Method: The MC4R system is central to appetite regulation and agonists are known inhibit food intake. In order to screen compounds in a relevant in vivo model, efficacy was assessed by determining the effect of the compound on reducing food intake acutely in mice.
All animal protocols were approved by an Institutional Animal Care and Use Committee and Ethical Review Committee of Novo Nordisk. Animals were housed according to Novo Nordisk rodent housing standards, and were given ad libitum access to food and water under controlled lighting (12 h:12 h light/dark cycle; lights off 11:00-23:00), temperature (23±2° C.) and relative humidity (50±20%) conditions. For each acute food intake study C57BL/6J male mice (25-30 grams body weight) were acclimated for two weeks to the appropriate light cycle and to single-housing (one mouse per cage) in cages linked to a BioDAQ automated food intake system (Research Diets Inc., New Brunswick, N.J. USA). The animals were also acclimated to new food (Research Diets 12450B, 10% kcal fat) during this time.
The BioDAQ is a computer automated scientific instrument for Biological Data Acquisition of food intake in rodents and measures food intake from each cage every 15 minutes. A total of 32 animals can be accommodated in the system per study, therefore, animals were randomized into 4 groups of n=8 for each study. […] Animals were fasted ˜4 hr prior to dosing. Vehicle (10 mM phosphate; 140 mM sodium chloride) or compound was dosed at a volume of 10 ml per kg subcutaneously approximately 20 minutes prior to the start of the dark cycle (compound chem no. and dosages are indicated in table 2 below). After dosing, food intake was recorded for approximately 24 hours.
The inhibitory effect of compounds on food intake was generally well-correlated with in vitro binding affinity on the human MC4 receptor and with plasma stability of the compound. Most studies were conducted as dose response studies with vehicle and the compound at 3 doses (0.3, 1 and 3 mg/kg). Some studies were done for the purpose of dose-range finding, while others were done to comparatively assess the effect of 3 compounds at the same dose. Maximal effects on food intake occurred within the first 1-5 hours post-dose. The comparative effect of compounds across studies on food intake was assessed by normalizing measurements as % effect on cumulative food intake after a single subcutaneous dose, relative to vehicle. Results are reported in Table 2 as % effect on food intake at 3 hours post dose.

human MC4R [2] = molecular target: T1, human MC4R (Homo sapiens, UniProt P32245); test: Functional cAMP assay (CisBio HTRF) in BHK cells expressing human MC4R; format: cell-based; settings: for MC1R/MC4R cAMP EC50 ratio: MC1R cAMP EC50 divided by MC4R cAMP EC50
T1 construct: expressed in transfected cells
Method in brief: (§1)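 Stably transfected BHK cells expressing human MC1R or MC4R; cAMP quantified by HTRF (cAMP-d2/cryptate) after 30 min compound stimulation at 25 °C in DMEM-based buffer with 1 mM IBMX. Compounds were prepared as 10-fold serial dilutions starting at 2 μM (working solution, 2× final). Readout after 1 h at 25 °C; non-linear regression.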

human MC4R [3] = molecular target: T1, human MC4R; test: 125NDP-α-MSH competitive binding to membranes of BHK cells expressing human MC4 receptor (filtration assay)
Method in brief: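 Displacement of ^125NDP-α-MSH (apx. […] final) was measured by filtration after 2 h at 25 °C, using diluted membranes of stably transfected BHK cells in pH 7.0 HEPES buffer. Compounds spanned 1 μM to 0.001 nM; binding curves were analysed by non-linear regression.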

human MC1R = molecular target: T2, human MC1R (Homo sapiens, UniProt Q01726); test: Functional cAMP assay (CisBio HTRF) in BHK cells expressing human MC1R; format: cell-based
T2 construct: expressed in transfected cells
Method in brief: as §1

[4] = human MC4R, BHK cell membranes, 125NDP-α-MSH radioligand, read-out: MC4R binding Ki
[5] = BHK cells expressing human MC4R, '>' = highest dose used with no response, read-out: MC4R cAMP EC50

T1 sequence (P32245 whole entry): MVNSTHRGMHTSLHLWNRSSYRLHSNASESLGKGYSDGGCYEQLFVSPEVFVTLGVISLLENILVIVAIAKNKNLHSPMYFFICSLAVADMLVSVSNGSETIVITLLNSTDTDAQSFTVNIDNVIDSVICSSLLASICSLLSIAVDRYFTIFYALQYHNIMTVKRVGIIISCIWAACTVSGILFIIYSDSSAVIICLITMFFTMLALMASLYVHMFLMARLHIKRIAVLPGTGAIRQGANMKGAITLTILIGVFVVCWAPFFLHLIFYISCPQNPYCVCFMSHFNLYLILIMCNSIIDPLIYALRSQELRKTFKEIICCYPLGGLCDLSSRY
T2 sequence (Q01726 whole entry): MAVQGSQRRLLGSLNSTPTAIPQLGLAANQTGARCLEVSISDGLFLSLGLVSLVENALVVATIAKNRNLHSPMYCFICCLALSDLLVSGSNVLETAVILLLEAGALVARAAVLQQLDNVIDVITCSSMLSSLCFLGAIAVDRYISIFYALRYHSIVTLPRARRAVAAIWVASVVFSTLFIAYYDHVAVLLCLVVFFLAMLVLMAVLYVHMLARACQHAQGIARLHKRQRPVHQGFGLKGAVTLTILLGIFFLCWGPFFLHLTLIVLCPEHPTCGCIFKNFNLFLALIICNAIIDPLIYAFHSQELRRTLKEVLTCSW

| Structure (SMILES) | % Effect on food intake at 3 hours post dose, relative to vehicle [1] | MC1R/MC4R cAMP EC50 ratio (human MC4R [2]) | Ki (human MC4R [3]; [4]) | EC50 (human MC4R [2]; [5]) | Ki (human MC4R [3]) | EC50 (human MC4R [2]) | EC50 (human MC1R) | EC50 (human MC1R; BHK cells expressing human MC1R, '>' = highest dose used with no response, read-out: MC1R cAMP EC50) |
| --- | --- | --- | --- | --- | --- | --- | --- | --- |
| NCCCC[C@@H]1NC(=O)[C@@H]2CSSC[C@H](NC(=O)[C@H](Cc3c[nH]c4ccccc34)NC(=O)[C@H](Cc3c[nH]cn3)NC(=O)[C@@H](Cc3ccccc3)NC(=O)[C@H](Cc3c[nH]cn3)NC1=O)C(=O)N[C@@H](CCCCN)C(=O)N[C@@H](Cc1c[nH]cn1)C(=O)N[C@H](Cc1ccccc1)C(=O)N[C@@H](Cc1c[nH]cn1)C(=O)N[C@@H](Cc1c[nH]c3ccccc13)C(=O)N2 [Chem. 52, c[c[Cys-Lys-His-D-Phe-His-Trp-Cys]- Lys-His-D-Phe-His-Trp]] (cyclo(CKH[dF]HWCKH[dF]HW); disulfide 1-7) | −66 ± 9% | 207 |  |  |  |  |  |  |
| C[C@@H]1NC(=O)[C@@H]2CSSC[C@H](NC(=O)[C@H](Cc3c[nH]c4ccccc34)NC(=O)[C@H](CCCCN)NC(=O)[C@H](CCCCN)NC(=O)[C@H](CCCCN)NC1=O)C(=O)N1C[C@H](O)C[C@H]1C(=O)N[C@@H](Cc1c[nH]cn1)C(=O)N[C@H](Cc1ccccc1)C(=O)N[C@@H](Cc1c[nH]cn1)C(=O)N[C@@H](Cc1c[nH]c3ccccc13)C(=O)N2 [Chem. 70, c[c[Cys-Hyp-His-D-Phe-His-Trp-Cys]- Ala-Lys-Lys-Lys-Trp]] (cyclo(AKKKWC[Hyp]H[dF]HWC); disulfide 6-12) | −39 ± 10% | 199 | 0.07 nM | 0.38 nM |  |  |  |  |
| C[C@@H]1NC(=O)[C@@H]2CSSC[C@H](NC(=O)[C@H](Cc3c[nH]c4ccccc34)NC(=O)[C@H](CCCCN)NC(=O)[C@H](CCCCN)NC(=O)[C@H](CCCCN)NC1=O)C(=O)N1CSC[C@H]1C(=O)N[C@@H](Cc1c[nH]cn1)C(=O)N[C@H](Cc1ccccc1)C(=O)N[C@@H](Cc1c[nH]cn1)C(=O)N[C@@H](Cc1c[nH]c3ccccc13)C(=O)N2 [Chem. 81, c[c[Cys-THAZ-His-D-Phe-His-Trp- Cys]-Ala-Lys-Lys-Lys-Trp]] (cyclo(AKKKWC[Thz]H[dF]HWC); disulfide 6-12) | −72 ± 7% | 957 |  |  | 0.03 nM | 0.07 nM |  |  |
| C[C@@H]1NC(=O)[C@@H]2CSSC[C@H](NC(=O)[C@H](CCCNC(=N)N)NC(=O)[C@H](CCCCN)NC(=O)[C@H](CCCCN)NC(=O)[C@H](Cc3c[nH]cn3)NC1=O)C(=O)N1CCC[C@H]1C(=O)N[C@@H](Cc1c[nH]cn1)C(=O)N[C@H](Cc1ccccc1)C(=O)N[C@@H](Cc1c[nH]cn1)C(=O)N[C@@H](Cc1c[nH]c3ccccc13)C(=O)N2 [Chem. 96, c[c[Cys-Pro-His-D-Phe-His-Trp-Cys]- Ala-His-Lys-Lys-Arg]] (cyclo(AHKKRCPH[dF]HWC); disulfide 6-12) | −17 ± 14% | 1442 | 0.04 nM | 0.04 nM |  |  |  |  |
| C[C@@H]1NC(=O)[C@H](CCCCN)NC(=O)[C@H](CCCCN)NC(=O)[C@H](C)NC(=O)[C@@H]2CSSC[C@H](NC(=O)[C@H](Cc3c[nH]c4ccccc34)NC1=O)C(=O)N1CSC[C@H]1C(=O)N[C@@H](Cc1c[nH]cn1)C(=O)N[C@H](Cc1ccccc1)C(=O)N[C@@H](Cc1c[nH]cn1)C(=O)N[C@@H](Cc1c[nH]c3ccccc13)C(=O)N2 [Chem. 110, c[c[Cys-THAZ-His-D-Phe-His-Trp- Cys]-Ala-Lys-Lys-Ala-Trp]] (cyclo(AKKAWC[Thz]H[dF]HWC); disulfide 6-12) | −26 ± 15% | 1266 |  |  | 0.09 nM | 0.05 nM |  |  |
| C[C@@H]1NC(=O)[C@@H]2CSSC[C@H](NC(=O)[C@H](Cc3c[nH]c4ccccc34)NC(=O)[C@H](CCCNC(=N)N)NC(=O)[C@@H](Cc3ccccc3)NC(=O)[C@H](Cc3c[nH]cn3)NC1=O)C(=O)N[C@@H](C)C(=O)N[C@@H](Cc1c[nH]cn1)C(=O)N[C@H](Cc1ccccc1)C(=O)N[C@@H](CCCNC(=N)N)C(=O)N[C@@H](Cc1c[nH]c3ccccc13)C(=O)N2 [Chem. 111, c[c[Cys-Ala-His-D-Phe-Arg-Trp-Cys]- Ala-His-D-Phe-Arg-Trp]] | −63 ± 4% | 31 |  |  | 0.04 nM | 0.01 nM | 0.31 nM |  |
| C[C@@H]1NC(=O)[C@@H]2CSSC[C@H](NC(=O)[C@H](Cc3c[nH]c4ccccc34)NC(=O)[C@H](CCCNC(=N)N)NC(=O)[C@@H](Cc3ccccc3)NC(=O)[C@H](Cc3c[nH]cn3)NC1=O)C(=O)N1CCC[C@H]1C(=O)N1CCC[C@H]1C(=O)N[C@@H](CCC(=O)O)C(=O)N[C@@H](CCCNC(=N)N)C(=O)N[C@@H](Cc1c[nH]c3ccccc13)C(=O)N2 [Chem. 112, c[c[Cys-Ala-His-D-Phe-Arg-Trp-Cys]- Pro-Pro-Glu-Arg-Trp]] (cyclo(AH[dF]RWCPPERWC); disulfide 6-12) |  | 159 | 1.21 nM | 0.19 nM |  |  |  | 30.2 nM |
| C[C@@H]1NC(=O)[C@@H]2CSSC[C@H](NC(=O)[C@H](CCCNC(=N)N)NC(=O)[C@H](CCCN)NC(=O)[C@H](CCC(=O)O)NC(=O)[C@H](Cc3c[nH]cn3)NC1=O)C(=O)N1CSC[C@H]1C(=O)N[C@@H](Cc1c[nH]cn1)C(=O)N[C@H](Cc1ccccc1)C(=O)N[C@@H](Cc1c[nH]cn1)C(=O)N[C@@H](Cc1c[nH]c3ccccc13)C(=O)N2 [Chem. 120, c[c[Cys-THAZ-His-D-Phe-His-Trp- Cys]-Ala-His-Glu-Orn-Arg]] (cyclo(AHE[Orn]RC[Thz]H[dF]HWC); disulfide 6-12) | −28 ± 12% | 3673 |  |  |  | 0.08 nM |  |  |
